The text below walks through data of patent US8859819B2, “Sulphurated derivatives of resorcinol, preparation of same and cosmetic uses thereof” (Pierre Fabre Dermo-Cosmetique, priority 2009, dated 2014).

The structures appear in SMILES notation. Values after ≈ are worked out from the molar mass of the structure shown. Where two headings read alike, the source gives them in different places.

Assay [1] deals with P. acnes IP53.117 ATCC6919. The assay can be described thus: Minimal inhibitory concentration (MIC), microdilution. Type of assay: cell-based, Propionibacterium acnes. The note with it: for MIC: Cutibacterium acnes, P. acnes IP53.117 ATCC6919. The procedure: (§1) E) Determination of the Minimal Inhibitory Concentration (MIC): This test is used to determine the antibacterial activity of a compound. Tests are carried out with 4 bacterial strains using the principle of microdilution. The MIC are determined by micromethod in liquid medium. The successive dilutions according to the products tested in the culture broth (Trypcase soy) are carried out on 96 well microplates in a final volume of 0.1 ml. The wells are seeded with 0.01 ml of bacterial suspensions titrated at around 10^7 UFC/ml. The microplates are incubated under optimal growth conditions and the MIC is read visually.
For orientation: Dilution methods test growth across graded concentrations, often in twofold steps.

Another assay concerns B16-F10 cells. The assay can be described thus: Melanin assay test in B16-F10 cells. Type of assay: cell-based, murine. The conditions noted are these: Mus musculus, read-out: B16 activity results -% at X μM. The procedure: B) Melanin Assay Test in B16-F10 Cells:
This involves a test of measuring the synthesis of melanin by colorimetric assay on a murine melanoma cell line: the B16-F10 line. This test makes it possible to evaluate the depigmenting power of active ingredients.
The B16-F10 cells are cultured in 96-well plates in DMEM medium supplemented with FCS (foetal calf serum), and incubated for 24 hours at 37° C., 5% CO2. The cells are then stimulated with 0.1 μM α-MSH (to stimulate the synthesis of melanin, the stimulation observed is around 150%) and treated for 72 hours with the active ingredients to be tested. Each concentration of active ingredient is tested at least in triplicate. The total melanin followed by the intracellular melanin dissolved in the lysis buffer are then assayed by absorbance reading at 405 nm. The total proteins are assayed in the lysate and the results are expressed in mg melanin/mg proteins. The percentage of activity is calculated as follows: […]
A negative value indicates an inhibition, whereas a positive value indicates an induction of the synthesis of melanin.
• B16-F10 cell line between P10 and P20 (murine melanocytes) (ATCC, CRL-6475)
Reagents: • DMEM without phenol red (GibcoBRL, 31053-028), 200 mM Glutamax-I Supplement (GibcoBRL, 35050-038), D-PBS (GibcoBRL, 14190-094), Foetal calf serum (Invitrogen, 10270-098), Trypsine-EDTA (GibcoBRL, 25300-054), NaOH (Sigma, S8045-500G), DMSO (Sigma, 471267-1L), Nle, Phe—Melanocyte Stimulating Hormone (Sigma, M-8764), Melanin (Sigma, M-0418), BCA-Copper (Sigma, B9643 and C2284), BSA (Sigma, P0914) C) Test for the Study of the Antioxidant Capacity by Chemiluminescence (Photochem Analytik Jena) Principle: […]

A short description of assay [2]: Protection of linoleic acid following a UV stress (Fenton conditions, MDA-TBA assay). The arrangement: % Protection Linoleic acid under UV/Fenton: concentration or dose not given beside the values. The conditions noted are these: UV + H2O2 + iron II. From the text: D) Test of Protection of Linoleic Acid Following a UV Stress. Target: Protection of Linoleic Acid Under Fenton Conditions, UV Irradiation Linoleic acid belongs to the family of polyunsaturated fatty acids (PUFA) (AGPI). Sensitive to oxidation, linoleic acid is a favoured target for oxygenated free radicals (OFR) in biological media. When biological membranes are exposed to an oxidative stress, the components the most affected are the phospholipids constituted of PUFA and cholesterol. Their degradation leads to lipidic peroxidation and generally to destructuring. Lipidic peroxidation is a self-catalysing process which generally involves OFR. Lipidic peroxidation is in part responsible for skin ageing. The method employed to evaluate lipid peroxidation is based on the coupling of thiobarbituric acid (TBA) and secondary degradation products leading to coloured compounds detectable by spectrofluorometry. The essential secondary compound of final degradation is malondialdehyde, MDA. MDA is a carcinogenic and mutagenic aldehyde, it acts on proteins and DNA. The sample to be tested is placed in contact with linoleic acid in a weight/weight ratio. The sample undergoes an MED (Minimal Erythemal Dose) irradiation under Fenton conditions, namely in the presence of H202 and iron II in a solar simulator. Following irradiation, the reaction mixture is taken up in methanol and derivatised at 90° C. with TBA. Chromogene, the MDA-TBA complex, representative of the equimolar production of MDA is assayed by fluorimetry (excitation at 525 nm, emission at 549 nm). The results are expressed in fluorescence units, as a function of a MDA-TBA control range then expressed as concentration of the MDA-TBA complex. Then, the percentage of the starting MDA/linoleic acid (LA) ratio is determined. Then the percentage of protection of linoleic acid is determined. The product assay is expressed as weight/weight ratio, in other words in weight percentage with respect to the total quantity of linoleic acid. The maximal MDA level is determined by the condition UV+H202+iron II (F). The percentage of protection of linoleic acid represents: the % ratio of MDA under maximal stress conditions untreated over the % of MDA under stress conditions treated by the product.

A short description of assay [3]: Antioxidant capacity by chemiluminescence (Photochem Analytik Jena). The conditions noted are these: Trolox equivalent; lower = stronger antioxidant. The procedure: This test is used to determine the antioxidant capacity of the molecules. It is a method that generates free radicals by a photochemical signal. The intensity of the oxidation is 1000 times greater than that obtained under normal conditions.
The detection is carried out by chemiluminescence. It enables the evaluation of hydrosoluble and liposoluble anti-oxidant molecules or extracts.
The results are expressed respectively in equivalent quantity of vitamin C or Trolox (6-hydroxy-2,5,7,8-tetramethylchroman-2-carboxylic acid). The sensitivity is of the order of a nanomole.
The antioxidant activity studied in this test represents the capacity to trap specifically superoxide anions by chemiluminescence.
The quantified results are expressed in Trolox equivalent (standard), i.e. in “μg of product for 1 μg of Trolox”. This signifies that a quantity×of sample is needed to obtain an activity equivalent to the activity detected for 1 μg of standard. It is an anti-oxidant power relative to a reference, which makes it possible to disregard the concentration tested.
The superoxide radical: 02^0− is generated by a photochemical reaction: L+hv (UV)+O2→L*O2→L^0++O2^0−
A part of the superoxide anions is quenched by the anti-oxidants. The remaining free radicals are quantified by chemiluminescence. L^0++O2^0−→N2+AP*^2−→AP^2−+hv (luminescence)

For a further assay, the target named is T1, mushroom tyrosinase (Agaricus bisporus, UniProt C7FF04).
T1 construct: purchased Sigma T-3824
T1 sequence (C7FF04 1-392 limits assumed): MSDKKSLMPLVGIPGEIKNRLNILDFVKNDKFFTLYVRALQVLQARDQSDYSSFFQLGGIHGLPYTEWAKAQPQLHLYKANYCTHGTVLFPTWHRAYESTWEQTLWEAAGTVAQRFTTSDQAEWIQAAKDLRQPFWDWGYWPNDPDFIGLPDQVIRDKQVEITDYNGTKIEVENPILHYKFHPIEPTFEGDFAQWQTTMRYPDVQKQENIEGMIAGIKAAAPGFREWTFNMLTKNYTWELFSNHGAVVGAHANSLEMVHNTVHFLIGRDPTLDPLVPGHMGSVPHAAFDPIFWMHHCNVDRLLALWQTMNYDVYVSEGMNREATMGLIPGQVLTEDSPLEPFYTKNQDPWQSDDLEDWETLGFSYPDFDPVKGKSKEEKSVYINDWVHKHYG
The assay can be described thus: Tyrosinase inhibition test (in vitro acellular depigmenting activity). Type of assay: biochemical. The conditions noted are these: for Tyrosinase depigmenting activity result: class symbol, assay from 250 to 150 μM, overall tyrosinase activity (MPMOg), L-tyrosine substrate. From the text: A) Determination of the Depigmenting Activity in an in vitro Acellular Test: Tyrosinase Inhibition Test)
This test is used to evaluate the depigmenting activity of the molecules tested. Tyrosinase is a limiting enzyme in melanogenesis.
It belongs to the family of oxydoreductases. It has in particular the function: monophenol monooxygenase (MPMO) and polyphenol oxidase (PPO).
It is synthesised at the level of the melanocytes. It is activated during its migration towards melanosome […]. It transforms tyrosine into DOPA then dopaquinone, which leads in fine to a polymerisation, i.e. a production of pigments (see diagram below).
The substrate: L-tyrosine, is transformed into L-DOPA by the monophenol mono oxygenase function which is transformed by the polyphenol oxidase function from tyrosinase into dopaquinone. The latter is going to self-oxidise into dopachrome which is measured by spectrophotometry at 490 nm.
More precisely, it is the overall tyrosinase activity (MPMOg) which is measured since it is the dopachrome in fine that is assayed. Thus the products tested on MPMOg (=measurement of the activity on PPO and MPMO) can cumulate the inhibition of the 2 functions, • inhibiting uniquely the MPMO function stricto sensus (transformation of tyrosine into DOPA) as a complement to the PPO test, • could inhibit PPO uniquely. General Experimental Conditions:

Assay [4] relates to Staphylococcus aureus IP4.83 ATCC6538. The assay is described as follows: Minimal inhibitory concentration (MIC), microdilution. Format: cell-based. The procedure: as §1
Assay [5] concerns Staphylococcus epidermidis IP6821. Described as above. Format: cell-based. The method, then: as §1
In assay [6] the test system is Escherichia coli IP53126 ATCC8739. Described as above. Type of assay: cell-based. The method, then:
as §1

Setting [7] is: B16-F10, 50 μM, α-MSH stimulated, 72 hours, negative value = inhibition of melanin synthesis.

For `CCCCOc1cc(O)ccc1Sc1ccc(O)cc1O` [Example 5, 4-(2-butoxy-4-hydroxyphenylthio)benzene-1,3-diol], the MIC in assay [1] worked out at 3 µg/mL (≈ 9.79 µM); in assay [4], 6 µg/mL (≈ 19.6 µM); in assay [5] it was 3 µg/mL (≈ 9.79 µM). Moreover, the inhibition at 20 µM in the assay with B16-F10 cells (B16-F10, 72 h) amounted to 27%. The “% Protection Linoleic acid under UV/Fenton” value (from here on “% Protection Linoleic acid”) in assay [2] is recorded as 89%. Also, in assay [3], the “μg of sample for 1 μg of Trolox” value is 2.8 μg of sample for 1 μg of Trolox. Moreover, on mushroom tyrosinase, the “Tyrosinase depigmenting activity result” value is given as “+ + +”.

Turning to `CCCCCCCCCCOc1cc(O)ccc1Sc1ccc(O)cc1O` [Example 12, 4-(2-(decyloxy)-4-hydroxyphenylthio)benzene-1,3-diol], the “antibacterial activity against Propionibacterium acnes (in words)” value in assay [1] was “strong antibacterial activity”. Moreover, the MIC in assay [1] came out at 0.09 µg/mL (≈ 0.23 µM); in assay [4], 0.78 µg/mL (≈ 2 µM); in assay [5] it was 0.39 µg/mL (≈ 0.999 µM); in assay [6], 780 µg/mL (≈ 2000 µM). The “% Protection Linoleic acid” value in assay [2] is 96%. Moreover, the “μg of sample for 1 μg of Trolox” value in assay [3] is recorded as 3.4 μg of sample for 1 μg of Trolox.

In the case of `CCCCCCCCCCCCCCCCOc1cc(O)ccc1Sc1ccc(O)cc1O` [Example 13, 4-(2-(hexadecyloxy)-4-hydroxyphenylthio)benzene-1,3-diol], the MIC worked out at 90 µg/mL (≈ 190 µM) in assay [1], 190 µg/mL (≈ 400 µM) in assay [4] and 156 µg/mL (≈ 329 µM) in assay [5]. The “% Protection Linoleic acid” value in assay [2] is reported as 95%. The “μg of sample for 1 μg of Trolox” value in assay [3] is on record as 5.7 μg of sample for 1 μg of Trolox.

`O=C(CCc1ccccc1)Oc1cc(O)ccc1Sc1ccc(O)cc1O` [Example 17, 2-(2,4-dihydroxyphenylthio)-5-hydroxyphenyl 3-phenylpropanoate]: the inhibition at 92 µM with B16-F10 cells (B16-F10, 92 μM, α-MSH stimulated, 72 hours, negative value = inhibition) came to 50%. For the same compound, the “% Protection Linoleic acid” value in assay [2] came out at 87%. Moreover, the “μg of sample for 1 μg of Trolox” value in assay [3] is 3.9 μg of sample for 1 μg of Trolox. Besides, on mushroom tyrosinase, the “Tyrosinase depigmenting activity result” value is given as “+ + +”.

`O=C(CCc1ccccc1)Oc1ccc(Sc2ccc(O)cc2O)c(O)c1` [Example 18, 4-(2,4-dihydroxyphenylthio)-3-hydroxyphenyl 3-phenylpropanoate]: the inhibition at 50 µM in the assay on B16-F10 cells (setting [7]) was determined as 20%. The “% Protection Linoleic acid” value in assay [2] came to 90%. The “μg of sample for 1 μg of Trolox” value in assay [3] is 24.1 μg of sample for 1 μg of Trolox. The “Tyrosinase depigmenting activity result” value at mushroom tyrosinase was “+ + +”.

Turning to `CC(C)CC(=O)Oc1cc(O)ccc1Sc1ccc(O)cc1O` [Example 19, 2-(2,4-dihydroxyphenylthio)-5-hydroxyphenyl 3-methylbutanoate], the inhibition at 50 µM in the assay with B16-F10 cells (setting [7]) was 20%. In addition, the “% Protection Linoleic acid” value in assay [2] was 88%. The “μg of sample for 1 μg of Trolox” value in assay [3] is recorded as 2.8 μg of sample for 1 μg of Trolox. Moreover, the “Tyrosinase depigmenting activity result” value at mushroom tyrosinase is on record as “+ + +”.

For the compound `CC(C)CC(=O)Oc1ccc(Sc2ccc(O)cc2O)c(O)c1` [Example 20, 4-(2,4-dihydroxyphenylthio)-3-hydroxyphenyl 3-methylbutanoate], the inhibition at 50 µM in the assay with B16-F10 cells (setting [7]) stood at 24%. Further, the “% Protection Linoleic acid” value in assay [2] is listed as 91%. Also, the “μg of sample for 1 μg of Trolox” value in assay [3] is recorded as 25.6 μg of sample for 1 μg of Trolox. In addition, the “Tyrosinase depigmenting activity result” value on mushroom tyrosinase is “+ + +”.

As for `CCCCCCCCNC(=O)Oc1cc(O)ccc1Sc1ccc(O)cc1O` [Example 24, 2-(2,4-dihydroxyphenylthio)-5-hydroxyphenyl octylcarbamate], the inhibition at 50 µM with B16-F10 cells (B16-F10, 72 h) came out at 26%. In addition, the “% Protection Linoleic acid” value in assay [2] was determined as 97%. The “μg of sample for 1 μg of Trolox” value in assay [3] is listed as 3.8 μg of sample for 1 μg of Trolox. Also, the “Tyrosinase depigmenting activity result” value at mushroom tyrosinase is “+ + +”.

Regarding `[O-][S+](c1ccc(O)cc1O)c1ccc(O)cc1O` [Example 25, 4,4′sulphinyldibenzene-1,3-diol], in the assay with B16-F10 cells (B16-F10, 73 μM, α-MSH stimulated, 72 hours, negative value = inhibition), the inhibition at 73 µM came to 50%. The “% Protection Linoleic acid” value in assay [2] is recorded as 79%. Also, in assay [3], the “μg of sample for 1 μg of Trolox” value was 73 μg of sample for 1 μg of Trolox. Moreover, at mushroom tyrosinase, the IC50 is 12 µM and the “Tyrosinase depigmenting activity result” value is on record as “+ + +”.

By MIC is commonly meant the lowest concentration found to suppress growth. Usually IC50 stands for the concentration at which inhibition is half-maximal.
